# Results as given in ChEMBL document CHEMBL4715885, “Novel dual LSD1/HDAC6 inhibitors for the treatment of multiple myeloma” (Bioorg Med Chem Lett, 2021).
# Calls of active or inactive are those of the source. No cut-off for these calls is given here.
# Legend:
# [1] = biological target: Histone deacetylase 1 (Homo sapiens) (UniProt Q13547); experiment: Inhibition of human HDAC1 at 1uM using RHKKAc as substrate by fluorescence method relative to control
# MM1.S [2] = experiment: Antiproliferative activity against human MM1.S cells assessed as reduction in cell viability after 144 hrs; type: functional, cell-based
# MM1.S [3] = experiment: Antiproliferative activity against human MM1.S cells assessed as reduction in cell viability at 10 uM after 144 hrs relative to control; type: functional
# [4] = biological target: T1, Protein deacetylase HDAC6 (Homo sapiens, UniProt Q9UBN7); experiment: Inhibition of human HDAC6 (unknown origin) using RHKKAc as substrate by fluorescence method
# T1 sequence (Q9UBN7 whole entry): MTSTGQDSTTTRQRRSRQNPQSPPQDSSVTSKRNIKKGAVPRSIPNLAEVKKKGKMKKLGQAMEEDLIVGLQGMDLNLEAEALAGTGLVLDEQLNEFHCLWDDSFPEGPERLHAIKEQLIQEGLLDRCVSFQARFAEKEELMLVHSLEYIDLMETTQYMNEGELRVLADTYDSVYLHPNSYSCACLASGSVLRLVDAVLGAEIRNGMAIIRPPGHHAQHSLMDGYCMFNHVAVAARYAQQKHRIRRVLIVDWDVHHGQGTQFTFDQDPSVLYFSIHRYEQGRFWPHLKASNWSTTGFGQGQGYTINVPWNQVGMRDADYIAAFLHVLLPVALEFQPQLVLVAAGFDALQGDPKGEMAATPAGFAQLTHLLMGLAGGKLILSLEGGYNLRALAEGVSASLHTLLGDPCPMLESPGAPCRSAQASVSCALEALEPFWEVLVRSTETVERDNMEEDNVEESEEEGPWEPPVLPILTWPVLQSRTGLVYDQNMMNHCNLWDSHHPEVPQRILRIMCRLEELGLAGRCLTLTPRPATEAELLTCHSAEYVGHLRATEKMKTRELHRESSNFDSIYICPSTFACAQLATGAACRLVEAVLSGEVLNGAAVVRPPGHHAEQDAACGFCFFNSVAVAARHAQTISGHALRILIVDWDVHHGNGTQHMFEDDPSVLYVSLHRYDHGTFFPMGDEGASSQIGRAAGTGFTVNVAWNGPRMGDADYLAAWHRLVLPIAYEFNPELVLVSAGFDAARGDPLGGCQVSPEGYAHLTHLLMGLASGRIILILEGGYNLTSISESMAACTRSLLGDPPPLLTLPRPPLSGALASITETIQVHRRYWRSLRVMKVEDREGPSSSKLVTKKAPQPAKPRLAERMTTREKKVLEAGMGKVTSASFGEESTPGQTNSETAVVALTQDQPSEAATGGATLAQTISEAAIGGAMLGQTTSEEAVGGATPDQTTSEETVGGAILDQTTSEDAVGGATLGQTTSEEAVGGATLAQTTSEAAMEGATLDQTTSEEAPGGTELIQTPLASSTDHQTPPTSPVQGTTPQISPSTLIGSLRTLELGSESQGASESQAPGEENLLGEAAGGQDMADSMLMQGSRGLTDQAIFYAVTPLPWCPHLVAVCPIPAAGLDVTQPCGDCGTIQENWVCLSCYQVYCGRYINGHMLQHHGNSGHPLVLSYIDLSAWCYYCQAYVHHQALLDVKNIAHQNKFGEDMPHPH
# [5] = Half life in Balb/c mouse at 50 mg/kg, po; type: ADME, organism-based; details: in vivo
# CYP3A4 = CYP3A4 (Homo sapiens, UniProt P08684); experiment: Inhibition of CYP3A4 (unknown origin) at 10 uM relative to control; type: ADME
# [6] = Drug concentration in tumour of mouse xenografted with human MM1.S cells at 50 mg/kg, po dosed daily for 12 days; type: ADME, organism-based, Neoplasm; details: time 12 day, read-out: Drug uptake
# [7] = Permeability from apical to basolateral side in human Caco2 cells; type: ADME, cell-based; details: Caco-2, read-out: permeability
# [8] = Protein binding in plasma (unknown origin) assessed as unbound fraction; type: ADME, cell-free
# [9] = Stability in mouse liver microsomes assessed as parent compound remaining measured after 30 mins; type: ADME, Microsome; details: microsomes, 0.5 h
# [10] = Clearance in Balb/c mouse at 50 mg/kg, po; type: ADME, organism-based; details: in vivo
# [11] = Inhibition of HDAC phosphorylation (unknown origin); set-up: species or system Homo sapiens
# [12] = Stability in human liver microsomes assessed as parent compound remaining measured after 30 mins; type: ADME, Microsome; details: microsomes, 0.5 h
# RPMI-8226 = experiment: Antiproliferative activity against human RPMI-8226 cells assessed as reduction in cell viability after 144 hrs; type: functional, cell-based; details: RPMI-8226, 144 h
# [13] = biological target: T2, Amine oxidase [flavin-containing] A (Homo sapiens, UniProt P21397); experiment: Inhibition of MAO-A (unknown origin)
# T2 sequence (P21397 whole entry): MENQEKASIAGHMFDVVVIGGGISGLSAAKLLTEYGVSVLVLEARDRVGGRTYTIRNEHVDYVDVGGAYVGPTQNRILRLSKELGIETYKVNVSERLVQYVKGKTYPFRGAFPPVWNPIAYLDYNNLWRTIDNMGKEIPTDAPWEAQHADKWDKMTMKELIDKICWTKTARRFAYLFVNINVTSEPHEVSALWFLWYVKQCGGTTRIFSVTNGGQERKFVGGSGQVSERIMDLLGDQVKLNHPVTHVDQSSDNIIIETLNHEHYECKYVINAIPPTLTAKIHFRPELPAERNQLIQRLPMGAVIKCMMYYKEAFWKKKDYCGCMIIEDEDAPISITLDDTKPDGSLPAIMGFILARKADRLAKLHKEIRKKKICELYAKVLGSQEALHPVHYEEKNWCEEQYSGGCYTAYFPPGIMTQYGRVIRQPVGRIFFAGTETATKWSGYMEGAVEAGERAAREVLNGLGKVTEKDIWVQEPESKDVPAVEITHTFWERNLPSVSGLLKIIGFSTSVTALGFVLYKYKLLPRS
# [14] = Volume of distribution in Balb/c mouse at 50 mg/kg, po; type: ADME, organism-based; details: in vivo
# [15] = AUC (0 to t) in Balb/c mouse at 10 mg/kg, iv; type: ADME, organism-based; set-up: dose 10 mg/kg; details: in vivo
# [16] = Cmax in Balb/c mouse at 10 mg/kg, iv; type: ADME, organism-based; set-up: route intravenous, dose 10 mg/kg; details: in vivo
# [17] = Oral bioavailability in Balb/c mouse at 50 mg/kg; type: ADME, organism-based; details: in vivo
# MM1.S [18] = experiment: Antitumour activity against human MM1.S cells xenografted in SCID mouse assessed as tumour growth inhibition at 25 mg/kg, po for 12 days relative to control; type: functional; details: 288 h, time 12 day, read-out: TGI
# [19] = Permeability from basolateral to apical side in human Caco2 cells; type: ADME, cell-based; details: Caco-2, read-out: permeability
# [20] = biological target: T3, Amine oxidase [flavin-containing] B (Homo sapiens, UniProt P27338); experiment: Inhibition of MAO-B (unknown origin)
# T3 sequence (P27338 whole entry): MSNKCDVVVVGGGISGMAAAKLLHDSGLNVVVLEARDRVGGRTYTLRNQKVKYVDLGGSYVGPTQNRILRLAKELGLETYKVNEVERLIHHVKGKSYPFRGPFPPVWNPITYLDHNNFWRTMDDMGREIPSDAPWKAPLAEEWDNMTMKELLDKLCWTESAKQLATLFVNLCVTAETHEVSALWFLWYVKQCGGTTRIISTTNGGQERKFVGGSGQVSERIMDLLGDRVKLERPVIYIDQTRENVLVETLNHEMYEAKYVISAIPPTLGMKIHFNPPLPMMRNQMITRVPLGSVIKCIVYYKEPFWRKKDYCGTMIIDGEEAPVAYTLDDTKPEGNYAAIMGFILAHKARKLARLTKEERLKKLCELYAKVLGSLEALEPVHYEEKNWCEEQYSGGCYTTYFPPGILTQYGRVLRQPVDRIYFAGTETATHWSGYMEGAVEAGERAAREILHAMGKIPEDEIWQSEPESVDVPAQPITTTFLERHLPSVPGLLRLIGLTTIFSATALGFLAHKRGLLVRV
# [21] = Initial plasma concentration in Balb/c mouse at 50 mg/kg, po; type: ADME, organism-based; details: in vivo
# [22] = Antiproliferative activity against human MM1.R cells assessed as reduction in cell viability after 144 hrs; type: functional, cell-based; details: MM.1R
# [23] = biological target: T4, Polyamine deacetylase HDAC10 (Homo sapiens, UniProt Q969S8); experiment: Inhibition of HDAC10 (unknown origin)
# T4 sequence (Q969S8 whole entry): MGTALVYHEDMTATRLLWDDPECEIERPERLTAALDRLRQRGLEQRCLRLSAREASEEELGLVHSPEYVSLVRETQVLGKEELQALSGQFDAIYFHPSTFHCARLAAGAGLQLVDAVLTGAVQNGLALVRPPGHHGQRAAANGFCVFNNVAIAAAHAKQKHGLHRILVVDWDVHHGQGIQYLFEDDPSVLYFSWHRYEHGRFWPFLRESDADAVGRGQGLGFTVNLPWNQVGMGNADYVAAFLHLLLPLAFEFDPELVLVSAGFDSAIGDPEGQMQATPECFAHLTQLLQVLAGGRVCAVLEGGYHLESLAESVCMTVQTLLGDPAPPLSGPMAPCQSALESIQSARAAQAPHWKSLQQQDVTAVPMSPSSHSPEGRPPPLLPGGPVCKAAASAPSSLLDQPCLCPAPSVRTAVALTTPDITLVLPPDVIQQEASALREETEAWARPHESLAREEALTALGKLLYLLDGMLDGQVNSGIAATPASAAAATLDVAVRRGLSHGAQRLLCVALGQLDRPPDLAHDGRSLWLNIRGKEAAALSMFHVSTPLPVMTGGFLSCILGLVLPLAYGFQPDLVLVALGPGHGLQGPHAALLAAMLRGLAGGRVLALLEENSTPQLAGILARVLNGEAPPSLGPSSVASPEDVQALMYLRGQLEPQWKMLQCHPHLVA
# [24] = Cmax in Balb/c mouse at 50 mg/kg, po; type: ADME, organism-based; set-up: route oral, dose 50 mg/kg; details: in vivo
# [25] = Drug concentration in plasma of mouse xenografted with human MM1.S cells at 50 mg/kg, po dosed daily for 12 days; type: ADME, organism-based; details: time 12 day
# [26] = Solubility of compound; type: physicochemical
# [27] = Half life in Balb/c mouse at 10 mg/kg, iv; type: ADME, organism-based; details: in vivo
# [28] = biological target: Voltage-gated inwardly rectifying potassium channel KCNH2 (Homo sapiens, UniProt Q12809); experiment: Inhibition of human ERG
# CYP2D6 = CYP2D6 (Homo sapiens, UniProt P10635); experiment: Inhibition of CYP2D6 (unknown origin) at 10 uM relative to control; type: ADME
# [29] = Toxicity in SCID mouse xenografted with human MM1.S cells assessed as induction of body weight loss at 50 mg/kg, po dosed daily for 12 days; type: organism-based; details: in vivo, 288 h, time 12 day
# Sequence of CYP3A4 (P08684 whole entry): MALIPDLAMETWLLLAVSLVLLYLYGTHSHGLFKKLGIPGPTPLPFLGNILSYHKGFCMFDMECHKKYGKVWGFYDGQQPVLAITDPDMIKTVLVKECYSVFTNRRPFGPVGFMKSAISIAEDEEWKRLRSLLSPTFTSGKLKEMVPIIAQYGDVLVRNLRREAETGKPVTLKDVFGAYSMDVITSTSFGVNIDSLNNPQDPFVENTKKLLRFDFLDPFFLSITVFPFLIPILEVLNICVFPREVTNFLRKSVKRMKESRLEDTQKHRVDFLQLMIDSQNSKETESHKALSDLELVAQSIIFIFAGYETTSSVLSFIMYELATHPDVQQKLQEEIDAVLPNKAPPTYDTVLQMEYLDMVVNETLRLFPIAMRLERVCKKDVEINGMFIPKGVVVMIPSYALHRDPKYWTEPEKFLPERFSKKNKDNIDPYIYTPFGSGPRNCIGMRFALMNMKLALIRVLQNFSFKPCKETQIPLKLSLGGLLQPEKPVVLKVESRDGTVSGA
# Sequence of CYP2D6 (P10635 whole entry): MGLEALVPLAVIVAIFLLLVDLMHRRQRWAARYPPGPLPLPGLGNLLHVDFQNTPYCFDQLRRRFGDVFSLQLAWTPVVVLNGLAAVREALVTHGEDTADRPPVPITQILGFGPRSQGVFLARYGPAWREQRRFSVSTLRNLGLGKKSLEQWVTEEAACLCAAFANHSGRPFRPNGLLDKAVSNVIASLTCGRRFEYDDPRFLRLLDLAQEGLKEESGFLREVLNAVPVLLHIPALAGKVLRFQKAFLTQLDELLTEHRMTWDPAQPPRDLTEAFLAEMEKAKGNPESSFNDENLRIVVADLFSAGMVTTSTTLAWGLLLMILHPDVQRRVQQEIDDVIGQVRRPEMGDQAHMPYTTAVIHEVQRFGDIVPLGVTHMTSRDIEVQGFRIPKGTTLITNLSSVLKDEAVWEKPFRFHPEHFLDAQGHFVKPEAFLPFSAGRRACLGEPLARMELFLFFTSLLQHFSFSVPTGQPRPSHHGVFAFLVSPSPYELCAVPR
# Sequence of Voltage-gated inwardly rectifying potassium channel KCNH2 (Q12809 whole entry): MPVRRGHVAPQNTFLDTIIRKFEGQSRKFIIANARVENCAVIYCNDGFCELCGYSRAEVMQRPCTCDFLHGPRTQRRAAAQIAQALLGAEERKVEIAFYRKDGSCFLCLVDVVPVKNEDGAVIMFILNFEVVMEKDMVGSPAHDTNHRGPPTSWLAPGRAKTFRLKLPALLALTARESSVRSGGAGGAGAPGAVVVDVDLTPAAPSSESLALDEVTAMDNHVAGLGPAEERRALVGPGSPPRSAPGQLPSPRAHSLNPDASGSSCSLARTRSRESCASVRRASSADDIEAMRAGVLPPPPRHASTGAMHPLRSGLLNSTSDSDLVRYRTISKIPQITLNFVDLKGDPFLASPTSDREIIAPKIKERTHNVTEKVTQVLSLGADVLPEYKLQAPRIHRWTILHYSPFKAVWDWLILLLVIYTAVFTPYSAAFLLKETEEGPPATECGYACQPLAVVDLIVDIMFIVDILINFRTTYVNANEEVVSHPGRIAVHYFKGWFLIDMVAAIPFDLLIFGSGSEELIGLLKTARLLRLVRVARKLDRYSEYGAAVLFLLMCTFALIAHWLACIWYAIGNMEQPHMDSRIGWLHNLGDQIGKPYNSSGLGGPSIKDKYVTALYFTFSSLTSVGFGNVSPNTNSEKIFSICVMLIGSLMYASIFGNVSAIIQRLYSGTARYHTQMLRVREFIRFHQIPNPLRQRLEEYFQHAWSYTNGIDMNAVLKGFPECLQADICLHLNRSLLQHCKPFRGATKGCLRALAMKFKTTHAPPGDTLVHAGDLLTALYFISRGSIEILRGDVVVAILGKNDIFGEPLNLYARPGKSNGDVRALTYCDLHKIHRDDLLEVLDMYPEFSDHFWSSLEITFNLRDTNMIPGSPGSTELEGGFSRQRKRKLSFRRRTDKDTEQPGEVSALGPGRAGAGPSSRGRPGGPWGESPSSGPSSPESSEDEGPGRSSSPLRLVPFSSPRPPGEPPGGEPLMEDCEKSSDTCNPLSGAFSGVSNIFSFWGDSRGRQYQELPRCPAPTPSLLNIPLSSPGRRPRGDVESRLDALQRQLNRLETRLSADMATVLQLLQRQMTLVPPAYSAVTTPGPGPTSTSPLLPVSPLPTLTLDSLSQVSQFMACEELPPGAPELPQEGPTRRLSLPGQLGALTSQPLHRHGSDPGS
# Sequence of Histone deacetylase 1 (Homo sapiens) (Q13547 whole entry): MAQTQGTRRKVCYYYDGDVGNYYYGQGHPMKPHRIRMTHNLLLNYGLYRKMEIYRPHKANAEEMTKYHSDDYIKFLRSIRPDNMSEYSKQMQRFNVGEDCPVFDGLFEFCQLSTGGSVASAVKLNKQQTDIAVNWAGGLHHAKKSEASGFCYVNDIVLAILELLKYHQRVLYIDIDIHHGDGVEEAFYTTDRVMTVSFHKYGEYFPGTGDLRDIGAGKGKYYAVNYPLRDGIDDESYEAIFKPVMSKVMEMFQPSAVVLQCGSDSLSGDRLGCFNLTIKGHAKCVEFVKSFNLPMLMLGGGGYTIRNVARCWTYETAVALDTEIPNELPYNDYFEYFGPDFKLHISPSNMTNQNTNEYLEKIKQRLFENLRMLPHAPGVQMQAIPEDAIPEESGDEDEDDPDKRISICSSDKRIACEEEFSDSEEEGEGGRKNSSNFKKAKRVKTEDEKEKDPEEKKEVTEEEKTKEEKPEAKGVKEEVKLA
smiles,measurement,setting,value
Cl.Cl.NC1CCC(N[C@@H]2C[C@H]2c2ccccc2)CC1 (some centres not stated),inhibition,[1],inactive
same,EC50,MM1.S [2],> 10 µM
same,Activity,MM1.S [3],30%
same,IC50,[4],Not Active
O=C(NO)c1ccc(CCCN2CCC(CN[C@H]3C[C@@H]3c3ccccc3)CC2)cc1 (racemic),half-life,[5],2.5 h
same,inhibition at 10 µM,CYP3A4,11%
same,concentration at 288 h,[6],216 ng/mL
same,Papp A→B,[7],2.67 ×10⁻⁶ cm/s
same,fraction unbound,[8],0.45
same,Stabilty,[9],56%
same,CL/F,[10],233 mL/min/kg
same,IC50,[11],1.78 µM
same,Stabilty,[12],40%
same,EC50,RPMI-8226,0.28 µM
same,IC50,[13],8.6 µM
same,Vd,[14],66 L/kg
same,AUC(0-t),[15],1520 ng·h/mL
same,Cmax,[16],821 ng/mL
same,bioavailability,[17],44%
same,inhibition in vivo at 25 mg/kg,MM1.S [18],67%
same,Papp B→A,[19],9.6 ×10⁻⁶ cm/s
same,IC50,[20],6.6 µM
same,C0,[21],1406 ng/mL
same,EC50,[22],0.006 µM
same,IC50,[23],> 10 µM
same,Cmax,[24],904 ng/mL
same,concentration at 288 h,[25],52 ng/mL
same,solubility,[26],110 µM
same,half-life,[27],3.3 h
same,IC50,[28],5.6 µM
same,inhibition at 10 µM,CYP2D6,54%
same,Activity,[29],Non-Toxic
